Experimental data from patent US12691115B2, “Methods for treatment of obesity, atherosclerosis, and thrombosis” (Marshall University Research Corporation, priority 2019, dated 2026).
Entries after “also recorded” stand apart in the source; their conditions may differ. Structures can show the parent of a compound that is named as a salt.

Legend:
[1] = cited from earlier work
platelets [2] = conditions: cited from earlier work
[3] = as component of Lonsurf (TAS-102); no systemic bleeding observed; cited from earlier work
AKT = assay: ADP-induced AKT phosphorylation in platelets (immunoblot); type: cell-based, mouse; conditions: 50 μM TPI, 2.5 μM ADP, especially the second phase
Method: Evaluation of platelet signaling activation. Platelets in PRP were stimulated with 2.5 μM ADP for 0, 1, 3, and 5 minutes, then lysed with radioimmunoprecipitation assay (RIPA) buffer containing proteinase/phosphatase inhibitor cocktail. The lysates were subsequently used for AKT activation immunoblotting assays. ADP-stimulated p-selectin expression was analyzed by flow cytometry.

Apoe^−/− mice = assay: Apoe−/− mice on WD gavage fed with TPI: liver fat accumulation and atherosclerotic lesions (Oil Red O); type: in vivo, mouse; conditions: gavage 60 μg/Kg/day, 4 weeks, vs saline
Excerpt: As mentioned above, TYMP enhances platelet activation in vitro and promotes thrombosis in vivo, making TYMP a potential target for antithrombotic therapy. […] Age-matched Apoe^−/− mice on WD fed with saline were used as controls.

WT mice [4] = assay: 7.5% FeCl3 induced carotid artery thrombosis model, drug given before injury; type: in vivo, mouse; conditions: for lowest effective dose with significant antithrombotic effect: gavage for one week; for lowest dose in inhibiting mouse thrombosis: in vivo
Method: (§1) Murine carotid artery thrombosis model and tail bleeding assay. Detailed ferric chloride (FeCl3) induced carotid artery thrombosis model has been described before. […] The endpoints were set as follows: 1) blood flow has ceased for >30 seconds; or 2) occlusion is not seen after 30 minutes of FeCl3 injury. […] In some experiments, a jugular vein catheter prepared with P-10 tubing was placed for drug administration after 5 minutes of thrombus initiation. Thrombus formation was continually monitored using the endpoints mentioned above. Tail bleeding assay was either conducted on mice immediately after the thrombosis study or on mice that were not used for the in vivo thrombosis study. […] Tail bleeding assay was conducted on these mice immediately after the thrombosis study.

platelets in PRP = assay: Mouse platelet aggregation assay (PRP); type: cell-based
Excerpt: Mouse platelet aggregation assay. […] Platelet-rich plasma (PRP) was used for platelet aggregation assay. […] Same volume of vehicle (DMSO or saline)-treated platelets was used as controls.

TYMP and Lyn = molecular target: T1, TYMP and Lyn (Homo sapiens, UniProt P19971); assay: Association of TYMP and Lyn (pull-down, Cos-7 cells); type: binding; conditions: TPI treatment
T1 construct: overexpressing full length human TYMP and Lyn in Cos-7 cells; expressed in transfected cells; host or cells: COS-7
T1 sequence (P19971 11-482): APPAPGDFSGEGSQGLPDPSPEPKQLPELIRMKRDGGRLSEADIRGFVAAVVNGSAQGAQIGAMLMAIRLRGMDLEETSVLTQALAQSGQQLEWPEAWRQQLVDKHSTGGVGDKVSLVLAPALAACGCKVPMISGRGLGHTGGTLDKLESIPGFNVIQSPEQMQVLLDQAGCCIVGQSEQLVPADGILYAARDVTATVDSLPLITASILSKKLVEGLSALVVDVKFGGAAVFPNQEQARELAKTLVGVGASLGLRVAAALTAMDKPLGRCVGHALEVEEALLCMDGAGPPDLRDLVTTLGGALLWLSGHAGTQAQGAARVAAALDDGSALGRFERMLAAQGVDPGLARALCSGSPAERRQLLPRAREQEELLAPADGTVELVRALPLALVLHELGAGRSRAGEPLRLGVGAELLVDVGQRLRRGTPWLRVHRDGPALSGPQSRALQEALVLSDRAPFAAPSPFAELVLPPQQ
Excerpt: Generation of fusion proteins to determine that TYMP binds to LYN through the SH3 binding domain. Human SH3 domain nucleotides (hLynSH3, amino acids 63-123) were amplified by PCR and cloned into a mammalian expression vector pEBG (Addgene, plasmid #22227) with an N-terminal glutathione S-transferase (GST) affinity tag (pEBG-GST-hLynSH3). A pCDNA6B/his-hTYMP plasmid vector was previously constructed. pEBG-GST-hLynSH3 and pCDNA6B/his-hTYMP plasmids were co-transfected into COS-7 cells, lysed in a Pierce™ IP Lysis Buffer (ThermoFisher Scientific), and used for GST pull down assay. Eluates were used for Western blot assay to confirm the presence of TYMP.
pEGFP-N1-human Lyn-GFP and pCDNA6B/his-hTYMP plasmids were also co-transfected into the COS-7 cells. TYMP was pulled down using immobilized Ni-NTA on magnetic sepharose beads (GE Healthcare Life Sciences) for His-tagged protein purification. His-hTYMP eluates were used for western blot assay for Lyn.

C57Bl6 wild type mice = assay: Western diet induced body weight gain; type: in vivo, mouse; conditions: gavage 1 mg/kg/day, western diet TD.88137, vs saline, hydrochloride
Excerpt: To determine if inhibition of TYMP could attenuate or inhibit obesity in vivo, C57Bl6 wild type mice were fed with a western diet (TD.88137, 42% calories from fat), started from 6 to 8 […], to facilitate their weight gain. […] Mice received the same volume of saline feeding as a control. Body weight gain was monitored weekly, and data were presented as mean of the accumulated weight gain from each mice at each week. N=3 in the saline-feeding group, and 2 in the TPI-feeding group.

WT mice [5] = conditions: mouse, in vivo; for mice considered to have bleeding side effects: male, 1 week
Method: as §1

[6] = tested on: WT mice fed a western diet; assay: FeCl3 thrombosis model under hyperlipidemia (western diet); type: in vivo, mouse; conditions: TPI 1 mg/kg for one week, WD 4 weeks
Excerpt: Examination of the effect of TYMP inhibition on thrombosis under hyperlipidemia. WT mice were fed a western diet (WD, TD.88137) for a total of 4 weeks. […] These mice were then subjected to the thrombosis study using the 7.5% FeCl3 induced thrombosis model.

platelets [7] = assay: Cellix flow chamber-based platelet adhesion and aggregation assay; type: cell-based, mouse
Method: Cellix flow chamber-based platelet adhesion and aggregation assay. Cellix flow chambers were coated with collagen 10 μg/mL in PBS. Whole blood was drawn from mouse IVC using 0.109 M sodium citrate as an anticoagulant, stained with Rhodamine 6G, and then used for the flow chamber mediated adhesion and aggregation assay. Some of the whole blood was treated with or without TPI before it was perfused into the chamber.

WT mice [8] = assay: FeCl3 thrombosis model, bolus injection via jugular vein catheter 5 minutes after thrombus initiation; type: in vivo, mouse
Method: Murine carotid artery thrombosis model and tail bleeding assay. Detailed ferric chloride (FeCl3) induced carotid artery thrombosis model has been described before. Vessel injury was induced by 7.5% FeCl3 solution to the carotid artery for 1 minute. […] The endpoints were set as follows: 1) blood flow has ceased for >30 seconds; or 2) occlusion is not seen after 30 minutes of FeCl3 injury. In this case, 30 minutes was assigned to that mouse for the statistical analysis. In some experiments, a jugular vein catheter prepared with P-10 tubing was placed for drug administration after 5 minutes of thrombus initiation. Thrombus formation was continually monitored using the endpoints mentioned above. Tail bleeding assay was either conducted on mice immediately after the thrombosis study or on mice that were not used for the in vivo thrombosis study.

[9] = bolus 17 and 1 mg/kg TPI, 5 min after injury

## Oc1ncnc2c1ncn2[C@@H]1O[C@H](COC(c2ccccc2)(c2ccccc2)c2ccccc2)[C@@H](O)[C@H]1O [KIN59, 5′-O-tritylinosine]
[1]
  thrombosis in vivo: dramatically inhibited
Platelets [2]
  platelet activation in vitro: dramatically inhibited

## [H]/N=C1\CCCN1Cc1[nH]c(=O)[nH]c(=O)c1Cl [TPI, tipiracil hydrochloride]
[3]
  systemic safety in clinical trials: systemically safe
AKT
  ADP-stimulated AKT phosphorylation: dramatically reduced
Apoe^−/− mice
  atherosclerotic plaque areas formation in aortic root: attenuated
  lipid accumulation in livers: attenuated
WT mice [4]; gavage 60 μg/kg/day for 3 days
  in vivo thrombosis: significantly inhibited
WT mice [4]; intraperitoneal 17 mg/kg once per day for three days
  occlusive thrombus formation in the carotid arteries: completely inhibited
WT mice [4]; intravenous injection 1.7 and 0.17 mg/kg, vs saline
  thrombosis: significantly inhibited
WT mice [4]; without significantly affecting hemostasis
  effective dose (anti-thrombotic): ≤ 60 µg/kg/day
Platelets in PRP; 50 μM TPI, 2.5 μM ADP, Tymp−/− platelets
  ADP-induced aggregation of Tymp−/− platelets: had no effect
Platelets in PRP; 50 μM TPI, 2.5 μM ADP, WT platelets
  ADP-induced WT platelet aggregation: attenuated
Platelets in PRP; 50 μM TPI, 2 minutes pretreatment
  CRP-induced platelet aggregation: completely blocked
Platelets in PRP; WT platelets, different concentrations of TPI, collagen 1 μg/ml
  collagen-induced platelet aggregation: dose-dependently inhibited
Platelets in PRP; dose-dependently at 250, 125 and 62.5 μM, 0.5 μg/ml CRP
  CRP-induced platelet shape change: inhibited
TYMP and Lyn
  association of TYMP and Lyn: disrupted
C57Bl6 wild type mice
  WD-induced body weight gain: reduced; also recorded: decreases
WT mice [5]
  mice considered to have bleeding side effects: 28.5%
  frequency of bleeding compared with clopidogrel-treated mice: significantly decreased
[6]
  hyperlipidemia-enhanced thrombosis: dramatically reduced
Platelets [7]; 50 μM TPI, WT whole blood, shear 65 dyn/cm^2, 3 minutes
  platelet aggregation to the collagen-coated surface: significantly reduced
Platelets [7]; TYMP inhibition, collagen-coated flow chamber
  platelet adhesion to collagen: does not affect
WT mice [8]; TPI 50 μg/kg intravenous injection
  occlusive thrombus formation: did not inhibit
WT mice [8]; [9]
  blood flow cessation: no blood flow cessation
  thrombosis formation (time): significantly prolonged
WT mice [8]; bolus 5 min after injury
  lowest effective dose on inhibiting the growth of the on-site thrombus: 0.05 to 0.1 mg/kg

## CC(=O)Oc1ccccc1C(=O)O [aspirin]
WT mice [4]; gavage aspirin 0.5 mg/kg/day for 7 days
  inhibiting thrombosis: no effect
WT mice [4]
  lowest effective dose with significant antithrombotic effect: 1 mg/kg/day
  lowest dose in inhibiting mouse thrombosis: 1 mg/kg
WT mice [5]
  mice considered to have bleeding side effects: 50%

## COC(=O)[C@H](c1ccccc1Cl)N1CCc2sccc2C1 [clopidogrel]
WT mice [4]
  lowest effective dose with significant antithrombotic effect: 2.5 mg/kg/day
  lowest dose in inhibiting mouse thrombosis: 2.5 mg/kg
WT mice [5]
  mice considered to have bleeding side effects: 75%

## tPA: tissue plasminogen activator (Activase), FDA-approved clot-busting drug
WT mice [8]; bolus 1 mg/kg, 5 min after vascular injury
  lysis of established thrombi: effectively lysed
WT mice [8]; bolus 5 min after injury
  lowest effective dose on thrombolysis: 0.25 to 0.5 mg/kg
WT mice [8]; tPA 0.25 and 0.125 mg/kg
  thrombolytic action: no thrombolytic action
